Assay results published in US8940798B2, “Compounds useful for treating and/or preventing disease-associated bone loss” (Centre National de al Recherche Scientifique (CNRS), priority 2011, dated 2015).

Tests used:
[1] = system: B16F10 melanoma cells; assay: Bone metastasis model, B16F10 melanoma cells expressing luciferase in C57B1/6 mice; type: in vivo, mouse; conditions: 15 mg/d/kg intraperitoneal every day for 12 days; measured at days 7, 10 and 12
From the text: The metastatic tumor cells in the bone matrix produce factors that directly or indirectly stimulate osteoclast differentiation and bone resorbing activity. In return, by resorbing it, the osteoclasts liberate growth factors embedded within the bone matrix that will stimulate the proliferation of metastatic cells. […] C21 being an efficient inhibitor of bone resorption, it was further assayed for its ability to slow down metastatic cell proliferation within the bone marrow. B16-F10 cells are derived from a C57B1/6 mouse melanoma and have a strong tropism for the bone. They are classically used as a model for bone metastases.
19 C57B1/6 mice received an injection of 10^5 B16F10 melanoma cells expressing luciferase in the left ventricle, 9 mice received the C21 compound (test group), 15 mg/d/kg solubilized in 100 μl of 5% EtOH and 4% solutol, every days for 12 days, as an intraperitoneal injection, and the other 10 mice (control group) received 100 μl of 5% ethanol/4% solutol vehicle solution.
The proliferation of B16F10 cells was followed by their bioluminescence, measured at days 7, 10 and 12 after injection of the cells (FIG. 20).

[2] = target: T1, Dock5-DHR2 (Mus musculus, UniProt B2RY04); assay: Active (GTP-bound) Rac1 pull-down in 293T cells expressing GFP-fused Dock5-DHR2; type: cell-based; conditions: HEK293T cells, treated for 1 hour, 1% DMSO, western blot
T1 construct: Dock5 DHR2 domain (aminoacids E1119 to L1667) was cloned into pEGFP (Clontech) or myc tagged in pRs426Met (21); expressed in transfected cells; host or cells: HEK-293T cells
T1 sequence (B2RY04 1119-1667): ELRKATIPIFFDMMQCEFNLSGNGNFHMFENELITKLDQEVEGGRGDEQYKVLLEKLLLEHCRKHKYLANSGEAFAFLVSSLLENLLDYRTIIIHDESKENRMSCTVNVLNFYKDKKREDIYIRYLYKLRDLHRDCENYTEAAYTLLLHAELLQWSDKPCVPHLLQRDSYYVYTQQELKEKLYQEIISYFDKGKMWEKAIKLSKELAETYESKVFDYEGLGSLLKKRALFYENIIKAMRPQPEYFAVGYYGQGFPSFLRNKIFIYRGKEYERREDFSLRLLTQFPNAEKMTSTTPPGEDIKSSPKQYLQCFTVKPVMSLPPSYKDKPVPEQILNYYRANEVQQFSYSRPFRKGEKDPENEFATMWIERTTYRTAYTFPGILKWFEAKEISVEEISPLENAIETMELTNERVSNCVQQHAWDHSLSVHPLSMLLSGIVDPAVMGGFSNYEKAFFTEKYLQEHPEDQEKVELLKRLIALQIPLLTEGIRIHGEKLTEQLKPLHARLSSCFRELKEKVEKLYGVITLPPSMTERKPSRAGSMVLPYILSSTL
From the text: (§1) FIGS. 5A-5H: Inhibition of bone resorption by an inhibitor of Rac1 activation by Dock5. (FIG. 5A) Principle of the yeast exchange assay used to identify inhibitors of Dock5 exchange activity. Wild type Rac1 is fused to LexA DNA binding domain (LexA) and its effector Kinectin (Kin) to GAL4 activation domain (GAD). Expression of Dock5-DHR2 activates Rac1, which binds to kinectin, leading to the expression of his3 and then yeast […] for histidine. Inhibitors of Dock5-DHR2 revert Rac1 activation. (FIG. 5B) Growth curves of yeasts expressing Rac1 and Kinectin with (open triangles) and without (dots) Dock5-DHR2, in medium complemented (plain lines) or not (dotted lines) with histidine. (FIG. 5C) Structure of N-(3,5-dichlorophenyl)benzensulfonamide (C21). […] (FIG. 5F) Number of OCs (OC) after a 24-hour incubation with the indicated concentrations of C21, expressed as a % of DMSO control (0 μM C21). […] To activate Rac1, OCs at day 4 of differentiation were starved overnight in the presence of 2% serum, stimulated with 100 ng/ml M-CSF or lifted and replated onto vitronectin-coated plates for 30 minutes prior to lysis, and active Rac1 levels were measured G-LISA kit according to manufacturer's instructions (Cytoskeleton).

[3] = target: T2, GEF TrioN (Homo sapiens, UniProt O75962); assay: Active (GTP-bound) Rac1 pull-down in 293T cells expressing GFP-fused TrioN; type: cell-based; conditions: HEK293T cells, treated for 1 hour, 1% DMSO, western blot
T2 construct: expressed in transfected cells; host or cells: 293T cells
From the text: as §1

[4] = system: osteoclasts (OCs); assay: TRAP staining of OCs to ascertain absence of toxicity; type: cell-based; conditions: 25 μM C21 vs DMSO (not shown)
From the text: OCs were fixed and stained for DNA, actin or vinculin or TRAP as described (16,19).
To confirm the essential role of Rac1 activation by Dock5 in the resorption process, it was sought for a chemical inhibitor of Dock5 exchange activity active in cell cultures. The inventors therefore took advantage of a yeast-based assay that they have developed (BLANGY et al., Identification of TRIO-GEFD1 chemical inhibitors using the yeast exchange assay, 2006, Biol Cell 98(9):511-22 and BOUQUIER et al. A cell active chemical GEF inhibitor selectively targets the Trio/RhoG/Rac1 signaling pathway, 2009, Chem Biol 16(6):657-66.). They constructed a yeast strain where Rac1 activation by Dock5 DHR2 induces the expression of the his3 reporter gene (FIG. 5A), which leads to faster yeast growth in Histidine deprived medium (FIG. 5B). A library of 2,640 heterocyclic commercial chemical compounds as described previously was screened (BOUQUIER et al., see above) for molecules able to inhibit growth of Dock5 DHR2-expressing yeasts in Histidine deprived medium without affecting growth in Histidine complemented medium. C21: N-(3,5-dichlorophenyl)benzenesulfonamide was then identified (FIG. 5C). […] In parallel, control OCs grown in the presence of DMSO or 25 μM C21 were stained for TRAP to ascertain C21 was not toxic (not shown).

## O=S(=O)(Nc1cc(Cl)cc(Cl)c1)c1ccccc1 [C21, N-(3,5-dichlorophenyl)benzenesulfonamide]
[1]
  Proliferation of B16F10 cells, bioluminescence in the tibia: markedly slowed down
[2]
  Activation of Rac1 by Dock5-DHR2: efficiently inhibits
[3]
  Rac1 activation by the GEF TrioN: no effect
[4]
  Toxicity to OCs by TRAP staining: not toxic
